Laboratory results from patent US9169254B2, “Spiroimidazolone derivative” (Chugai Seiyaku Kabushiki Kaisha, priority 2009, dated 2015).

The molecules below were run against T1, human PTH1 receptor (Homo sapiens, UniProt Q03431) (assay: In vitro cAMP signal activity in HKRK-B7 cells (LLC-PK1 cells overexpressing the human PTH1 receptor)). Details: HKRK-B7 cells; compound at 1×10^−3 M; cAMP produced as percentage of that produced by hPTH(1-34) at 100 nM.
T1 sequence (Q03431 27-593): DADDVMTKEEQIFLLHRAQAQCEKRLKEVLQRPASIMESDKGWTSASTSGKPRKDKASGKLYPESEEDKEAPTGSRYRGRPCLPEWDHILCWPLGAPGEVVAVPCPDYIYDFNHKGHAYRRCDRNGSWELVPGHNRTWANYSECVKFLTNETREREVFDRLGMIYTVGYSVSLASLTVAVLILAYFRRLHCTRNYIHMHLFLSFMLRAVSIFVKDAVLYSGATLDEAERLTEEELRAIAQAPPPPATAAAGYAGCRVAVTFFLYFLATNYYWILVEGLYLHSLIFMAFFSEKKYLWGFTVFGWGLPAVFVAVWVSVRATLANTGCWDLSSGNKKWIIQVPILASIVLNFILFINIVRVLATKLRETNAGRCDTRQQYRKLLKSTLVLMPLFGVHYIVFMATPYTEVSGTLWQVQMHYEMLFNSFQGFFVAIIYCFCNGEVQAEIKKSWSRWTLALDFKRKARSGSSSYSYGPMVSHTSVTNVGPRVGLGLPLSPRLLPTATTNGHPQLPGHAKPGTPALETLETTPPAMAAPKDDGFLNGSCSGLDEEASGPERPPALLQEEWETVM
Assay type: cell-based

Compound	cAMP production activity (%)
Cc1cc(N(C)C(N)=O)cc(C)c1/C=C\S(=O)(=O)N1CCC2(CC1)N=C(CCCCCc1ccccc1)NC2=O.O=C(O)C(F)(F)F [Compound 1134, 1-(3,5-dimethyl-4-{(Z)-2-[4-oxo-2-(5-phenyl-pentyl)-1,3,8-triaza-spiro[4.5]dec-1-ene-8-sulfonyl]-vinyl}-phenyl)-1-methyl-urea trifluoroacetate]	50
Cc1cc(N(C)C(N)=O)cc(C)c1/C=C/S(=O)(=O)N1CCC2(CC1)N=C(CCCCCCCCCCCCCC(N)=O)NC2=O [Compound 1175, 14-(8-{(E)-2-[2,6-dimethyl-4-(1-methyl-ureido)-phenyl]-ethenesulfonyl}-4-oxo-1,3,8-triaza-spiro[4.5]dec-1-en-2-yl)-tetradecanoic acid amide]	81
CCCCC#CCCCC1=NC2(CCN(S(=O)(=O)/C=C/c3c(C)cc(N(C)C(N)=O)cc3C)CC2)C(=O)N1 [Compound 1024, 1-{3,5-dimethyl-4-[(E)-2-(2-non-4-ynyl-4-oxo-1,3,8-triaza-spiro[4.5]dec-1-ene-8-sulfonyl)-vinyl]-phenyl}-1-methyl-urea]	66
Cc1cc(N(C)C(N)=O)cc(C)c1CC[S@TB4](=O)(=O)N1CCC2(CC1)N=C(c1cccc(-c3cccc(-c4ccccc4)c3)c1)NC2=O [Compound 1155, 1-{3,5-dimethyl-4-[2-(4-oxo-2-[1,1′;3′,1″]terphenyl-3-yl-1,3,8-triaza-spiro[4.5]dec-1-ene-8-sulfonyl)-ethyl]-phenyl}-1-methyl-urea]	83
Cc1cc(NCCN(C)C)ccc1CCS(=O)(=O)N1CCC2(CC1)N=C(C1CCCCC1)NC2=O [Compound 842, 2-cyclohexyl-8-{2-[4-(2-dimethylamino-ethylamino)-2-methyl-phenyl]-ethanesulfonyl}-1,3,8-triaza-spiro[4.5]dec-1-en-4-one]	81
Cc1c(CCS(=O)(=O)N2CCC3(CC2)N=C(C2CCC(C)CC2)NC3=O)ccc(N(C)C(N)=O)c1C (stereo not drawn) [Compound 679, 1-(2,3-Dimethyl-4-{2-[2-(4-methyl-cyclohexyl)-4-oxo-1,3,8-triaza-spiro[4.5]dec-1-ene-8-sulfonyl]-ethyl}-phenyl)-1-methyl-urea]	65
CCCCCCCCCC1=NC2(CCN(S(=O)(=O)C(F)(F)Cc3c(C)cc(N(C)C(N)=O)cc3C)CC2)C(=O)N1 [Compound 1086, 1-{4-[2,2-Difluoro-2-(2-nonyl-4-oxo-1,3,8-triaza-spiro[4.5]dec-1-ene-8-sulfonyl)-ethyl]-3,5-dimethyl-phenyl}-1-methyl-urea]	151
Cc1cc(C(=O)N2CCC(O)CC2)cc(C)c1/C=C/S(=O)(=O)N1CCC2(CC1)N=C(c1cccc(C(F)(F)F)c1)NC2=O [Compound 384, 8-{(E)-2-[4-(4-hydroxy-piperidine-1-carbonyl)-2,6-dimethyl-phenyl]-ethenesulfonyl}-2-(3-trifluoromethyl-phenyl)-1,3,8-triaza-spiro[4.5]dec-1-en-4-one]	61
Cc1cc(C(=O)N2CCC[C@H]2CO)ccc1CCS(=O)(=O)N1CCC2(CC1)N=C(c1cccc(C(F)(F)F)c1)NC2=O [Compound 356, 8-{2-[4-((S)-2-hydroxymethyl-pyrrolidine-1-carbonyl)-2-methyl-phenyl]-ethanesulfonyl}-2-(3-trifluoromethyl-phenyl)-1,3,8-triaza-spiro[4.5]dec-1-en-4-one]	78
Cc1cc(C(=O)N(C)C)ccc1CCS(=O)(=O)N1CCC2(CC1)N=C(c1cc(C(F)(F)F)cc(C(F)(F)F)c1)NC2=O [Compound 82, 4-{2-[2-(3,5-bis-trifluoromethyl-phenyl)-4-oxo-1,3,8-triaza-spiro[4.5]dec-1-ene-8-sulfonyl]-ethyl}-3,N,N-trimethyl-benzamide]	65
Cc1cc(N(C)C(=O)OC(C)(C)C)cc(C)c1CCS(=O)(=O)N1CCC2(CC1)N=C(C1CCCN1C(=O)OC(C)(C)C)NC2=O (stereo not drawn) [Compound 1033, 2-(8-{2-[4-(tert-Butoxycarbonyl-methyl-amino)-2,6-dimethyl-phenyl]-ethanesulfonyl}-4-oxo-1,3,8-triaza-spiro[4.5]dec-1-en-2-yl)-pyrrolidine-1-carboxylic acid tert-butyl ester]	22
Cc1cc(C(=O)N2CCC(C)(O)CC2)cc(C)c1/C=C/[S@TB4](=O)(=O)N1CCC2(CC1)N=C(c1ccc(F)c(OC(F)(F)F)c1)NC2=O [Compound 1099, 2-(4-fluoro-3-trifluoromethoxy-phenyl)-8-{(E)-2-[4-(4-hydroxy-4-methyl-piperidine-1-carbonyl)-2,6-dimethyl-phenyl]-ethenesulfonyl}-1,3,8-triaza-spiro[4.5]dec-1-en-4-one]	91
Cc1cc(NCC(=O)N2CCN(C)CC2)ccc1/C=C/S(=O)(=O)N1CCC2(CC1)N=C(c1cccc(OC(F)(F)F)c1)NC2=O [Compound 528, 8-((E)-2-{2-methyl-4-[2-(4-methyl-piperazin-1-yl)-2-oxo-ethylamino]-phenyl}-ethenesulfonyl)-2-(3-trifluoromethoxy-phenyl)-1,3,8-triaza-spiro[4.5]dec-1-en-4-one]	55
O=C1NC(C2CCCCC2)=NC12CCN(S(=O)(=O)c1csc3ccccc13)CC2 [Compound 53, 8-(benzo[b]thiophene-3-sulfonyl)-2-cyclohexyl-1,3,8-triaza-spiro[4.5]dec-1-en-4-one]	33
Cc1cc(N2C(=O)NC(C)(C)C2=O)ccc1CCS(=O)(=O)N1CCC2(CC1)N=C(C1CCC(CCC(F)(F)F)CC1)NC2=O (stereo not drawn) [Compound 864, 5,5-dimethyl-3-[3-methyl-4-(2-{4-oxo-2-[4-(3,3,3-trifluoro-propyl)-cyclohexyl]-1,3,8-triaza-spiro[4.5]dec-1-ene-8-sulfonyl}-ethyl)-phenyl]-imidazolidine-2,4-dione]	100
Cc1cc(N2C(=O)NC(COC(C)(C)C)C2=O)cc(C)c1/C=C/S(=O)(=O)N1CCC2(CC1)N=C([C@H]1CC[C@H](C)CC1)NC2=O (stereo partly drawn) [Compound 589, 5-tert-butoxymethyl-3-(3,5-dimethyl-4-{(E)-2-[2-(4-methyl-cyclohexyl)-4-oxo-1,3,8-triaza-spiro[4.5]dec-1-ene-8-sulfonyl]-vinyl}-phenyl)-imidazolidine-2,4-dione]	22
Cc1cc(OC[C@H](O)CO)ccc1CCS(=O)(=O)N1CCC2(CC1)N=C(c1cccc(OC(F)(F)F)c1)NC2=O [Compound 325, 8-{2-[4-((R)-2,3-Dihydroxy-propoxy)-2-methyl-phenyl]-ethanesulfonyl}-2-(3-trifluoromethoxy-phenyl)-1,3,8-triaza-spiro[4.5]dec-1-en-4-one]	61
Cc1cc2cc(C)c1CCS(=O)(=O)N1CCC3(CC1)N=C(CCCC/C=C/CCCCC(=O)N2C)NC3=O [Compound 1447]	15
COc1ccc(C2=NC3(CCN(S(=O)(=O)CCc4ccc(C(=O)N(C)C)cc4C)CC3)C(=O)N2)cc1C(F)(F)F [Compound 144, 4-{2-[2-(4-methoxy-3-trifluoromethyl-phenyl)-4-oxo-1,3,8-triaza-spiro[4.5]dec-1-ene-8-sulfonyl]-ethyl}-3,N,N-trimethyl-benzamide]	59
Cc1cc(N(C)C(N)=O)cc(C)c1/C=C/[S@TB3](=O)(=O)N1CCC2(CC1)N=C(CCCC/C=C/c1ccccc1)NC2=O [Compound 1120, 1-(3,5-dimethyl-4-{(E)-2-[4-oxo-2-((E)-6-phenyl-hex-5-enyl)-1,3,8-triaza-spiro[4.5]dec-1-ene-8-sulfonyl]-vinyl}-phenyl)-1-methyl-urea]	124
Cc1cc(N(C)C(N)=O)cc(C)c1CCS(=O)(=O)N1CCC2(CC1)N=C(CCCCCCCC(F)(F)C(F)(F)F)NC2=O [Compound 1302, 1-(3,5-dimethyl-4-{2-[4-oxo-2-(8,8,9,9,9-pentafluoro-nonyl)-1,3,8-triaza-spiro[4.5]dec-1-ene-8-sulfonyl]-ethyl}-phenyl)-1-methyl-urea]	95
Cc1cc(N(C)C(N)=O)cc(C)c1CCS(=O)(=O)N1CCC2(CC1)N=C(C(C1CC1)C1CC1)NC2=O [Compound 1052, 1-{4-[2-(2-dicyclopropylmethyl-4-oxo-1,3,8-triaza-spiro[4.5]dec-1-ene-8-sulfonyl)-ethyl]-3,5-dimethyl-phenyl}-1-methyl-urea]	62
Cc1cc(N(C)C(N)=O)cc(C)c1/C=C/S(=O)(=O)N1CCC2(CC1)N=C(CCCCCCCCCCCC(N)=O)NC2=O [Compound 1173, 12-(8-{(E)-2-[2,6-dimethyl-4-(1-methyl-ureido)-phenyl]-ethenesulfonyl}-4-oxo-1,3,8-triaza-spiro[4.5]dec-1-en-2-yl)-dodecanoic acid amide]	85
CCCOCCCCCC1=NC2(CCN(S(=O)(=O)CCc3c(C)cc(N(C)C(N)=O)cc3C)CC2)C(=O)N1 [Compound 1352, 1-(3,5-dimethyl-4-{2-[4-oxo-2-(5-propoxy-pentyl)-1,3,8-triaza-spiro[4.5]dec-1-ene-8-sulfonyl]-ethyl}-phenyl)-1-methyl-urea]	78
